In patent US20240216519A1, “SMALL HYDROPHOBIC PROTEIN DRUG CONJUGATES AND USES THEREOF” (priority 2021, published 2024):
Where “and” joins values, the source holds several entries; their conditions need not be identical. Equal entries are not always repeated. Where no end group is shown, it is not given here. TAMRA = carboxytetramethyl rhodamine on alpha-amino group of Met1

How the values were obtained:
rat GLP-1 receptor = molecular target: T1, rat GLP-1 receptor (Rattus norvegicus, UniProt P32301); test: cAMP accumulation, rat GLP-1 receptor; format: cell-based; details: rat GLP-1R-expressing HEK293 cells; read-out: EC50, intracellular cAMP accumulation
T1 construct: expressed in transfected cells; host or cells: COS-7 (methods)
T1 sequence (P32301 22-463): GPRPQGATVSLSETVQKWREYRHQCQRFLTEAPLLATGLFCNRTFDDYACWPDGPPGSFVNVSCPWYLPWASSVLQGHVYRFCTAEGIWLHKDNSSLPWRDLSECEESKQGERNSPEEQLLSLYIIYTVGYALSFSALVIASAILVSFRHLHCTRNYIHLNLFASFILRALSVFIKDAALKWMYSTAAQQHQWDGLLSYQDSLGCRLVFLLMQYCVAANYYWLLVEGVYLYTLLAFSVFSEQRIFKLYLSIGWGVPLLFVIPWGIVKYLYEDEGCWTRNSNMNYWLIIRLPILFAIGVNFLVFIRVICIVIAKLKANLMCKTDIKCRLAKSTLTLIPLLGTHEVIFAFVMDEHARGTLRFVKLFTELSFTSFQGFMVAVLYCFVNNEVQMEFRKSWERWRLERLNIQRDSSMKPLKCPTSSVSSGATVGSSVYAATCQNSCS
Method: (§1) Transient transfection of COS-7 cells was performed using calcium phosphate precipitation method. Briefly, a total of 10 ug of receptor DNA was diluted in TE-buffer ([…] Tris-HCl and 1 mM EDTA, pH 7.5) to a total of 105 ul, to which 15 ul of 2 M CaCl2) was added. The DNA-calcium co-precipitation was gently and slowly added to 120 ul 2× HEPES-buffered saline (HBS), and the transfection mixture was incubated at room temperature for 45 min. The total transfection mixture was added to the cells and incubated for 5 hours at 37° C. and 10% CO2, with the addition of 75 ul chloroquine to the growth medium. After 5 hours, the transfection medium was removed and replaced with regular growth medium. The cells were used in experiment 40-48 h after termination of the transfection procedure.
(§2) For the cAMP assay, the COS-7 cells were seeded into 96-well plates (35.000 cells/well) and washed with HBS prior to incubation with 100 ul […] isobutylmethylzanthine (IBMX) for 30 min at 37° C. […] After incubation, the medium was removed, and cells were treated according to the protocol ‘three reagent addition’ procedure for the HitHunter cAMP XS+Assay by DiscoverX, USA.

C57BL/6J mice [1] = test: Food intake of fasted C57BL/6J mice after i.p. injection (Example 8); format: in vivo, mouse; details: 200 nmol/kg i.p.
Method: Female C57BL/6J mice were purchased from Charles Rivers. […] The animals were housed in individual cages, with access to food and water, and food intake was measured 1 and 2 hours after injection.

[2] = Plasma and CSF concentrations after injection into vena cava (RIA GLP-1 assay); format: in vivo; details: rat
Method: Male Sprague Dawley rats were purchased from Charles Rivers. Animals were anesthetized by hypnorm/dormicum, and restrained in a stereotactic instrument. […] Blood samples were collected prior to the injection of test compounds and straight after CSF aspiration.
The assay buffer was 100 mM Tris buffer with pH 8.5 containing 1% (wt/vol) human serum albumin, 0.01 mM valine-pyrrolidide and 500 KIE aprotinin (final concentrations). […] Plasma and CSF concentrations were measured after dilution in assay buffer. Free and bound moieties were separated with plasma-coated charcoal.

C57BL/6J mice [3] = test: Acute food intake in lean mice, s.c. (Example 10); format: in vivo, mouse
Method: Female C57BL/6J mice were purchased from Charles Rivers. One week before study initiation the mice were single housed with free access to food and water. […] Thirty minutes prior peptide injection, all mice were administered subcutaneously with DDP-4 inhibitor Valine-pyrrolidide (1.5 mg/mouse). Food intake was measured after 1, 2, 4 and 14 hours (FIG. 14A-D).
Results shown are combined data from five studies with an identical study design as described above. Between each study mice had at least one week washout period.

[4] = system: Diet induced obese C57BL/6NTac male mice; test: Acute food intake in diet induced obese mice, s.c. (Example 11); format: in vivo, mouse; details: 15 nmol/kg s.c.
Method: Diet induced obese C57BL/6NTac male mice were purchased from Taconic and continued on a high fat high sucrose diet with free access to water. One week after arrival, animals were double or single housed. […] Thirty minutes prior peptide injection, all mice were administered subcutaneously with DDP-4 inhibitor Valine-pyrrolidide (3 mg/mouse). Food intake was measured after 1, 2, 4 and 14 hours (FIG. 15A-D).

CaCo-2 cells = test: Transport study: diffusion of FITCs through tight monolayer of Caco2 cells; format: cell-based; details: basal addition of FITCs together with ligand
Method: CaCo-2 cells were seeded in transwell chambers (basal) and two times TEER was measured until day 17-21 post seeding. TEER experiments were performed afte 17-21 days post seeding in wells with higher TEER as 1000 ohms (proof of a tight cell monolatyer. Caco2 cells were infected basal with mumps virus (MuV Jerryl Lynn strain, WT or SH-protein deletion virus) at a multiplicity of infection of 3. TEER was measured continuously performing CellZcope experiments.
Transport studies were performed until day 17-21 post seeding as described above for the Cellzcope experiments. Ligand or control induced changes in the tightness of the cell monolayer was measured passively by the basal addition of the fluorescence dye (FITCs) together with the ligands or controls. Increase of FITCs apical was detected by collecting samples after different time points.

human GLP-1 receptor = human GLP-1 receptor (Homo sapiens, UniProt P43220); test: cAMP accumulation, human GLP-1 receptor; format: cell-based; parameters: expressed in transfected cells; host or cells: COS-7 (methods)
Method: as §1, §2

[5] = system: choroid plexus of the WT mouse brain; test: TAMRA labelled SH-protein binding to cryo-sections, WT mouse brain; details: 1 h incubation
Method: (§3) SH protein (SEQ ID NO: 74) with a N-terminal carboxytetramethyl rhodamine attached through its carboxyl-group to the N-terminal alpha amino-group of the first Methionine was used for making the TAMRA labelled SH-protein (SEQ ID NO: 129). A mixture of 5-(and-6)-Carboxytetramethylrhodamine was used.
(§4) A whole body perfusion was performed of mice and brains were dissected and frozen at −80C. Cryo-sections of mouse brains (WT and GPR125 KO mouse (Spina et al. 2021)) were generated and the TAMRA-labelled SH-protein was incubated on the cryosections at different concentrations or buffer. Afterwards the sections were mounted with mounting media containing a DAPI stain.

[6] = system: choroid plexus of the GPR125 KO mouse brain; test: TAMRA labelled SH-protein binding to cryo-sections, GPR125 KO mouse brain; details: 1 h incubation
Method: as §3, §4

[7] = CSF 10 min after i.v. injection

Chain of human GLP-1 receptor (P43220 24-463): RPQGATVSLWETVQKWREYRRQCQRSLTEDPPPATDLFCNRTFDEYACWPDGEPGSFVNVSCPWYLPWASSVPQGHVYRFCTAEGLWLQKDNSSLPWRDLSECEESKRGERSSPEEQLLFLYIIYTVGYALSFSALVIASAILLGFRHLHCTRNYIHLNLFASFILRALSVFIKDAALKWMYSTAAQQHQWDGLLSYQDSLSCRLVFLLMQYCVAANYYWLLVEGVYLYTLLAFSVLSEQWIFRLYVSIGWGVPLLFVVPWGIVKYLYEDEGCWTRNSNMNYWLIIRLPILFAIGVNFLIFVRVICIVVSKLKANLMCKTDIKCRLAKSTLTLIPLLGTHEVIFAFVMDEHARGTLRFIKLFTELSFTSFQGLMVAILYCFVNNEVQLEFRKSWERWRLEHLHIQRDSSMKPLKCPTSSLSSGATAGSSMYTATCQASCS

## CC[C@H](C)[C@H](NC(=O)[C@H](C)NC(=O)[C@@H]1CCCN1)C(=O)N[C@@H](CCC(N)=O)C(=O)N1CCC[C@H]1C(=O)N1CCC[C@H]1C(=O)N[C@@H](CC(C)C)C(=O)N[C@@H](Cc1ccc(O)cc1)C(=O)N[C@@H](CC(C)C)C(=O)N[C@H](C(=O)NCCOCCOCC(=O)NCCCC[C@H](NC(=O)[C@H](C)NC(=O)[C@H](C)NC(=O)[C@H](CCC(N)=O)NC(=O)CNC(=O)[C@H](CCC(=O)O)NC(=O)[C@H](CC(C)C)NC(=O)[C@H](Cc1ccc(O)cc1)NC(=O)[C@H](CO)NC(=O)[C@H](CO)NC(=O)[C@@H](NC(=O)[C@H](CC(=O)O)NC(=O)[C@H](CO)NC(=O)[C@@H](NC(=O)[C@H](Cc1ccccc1)NC(=O)[C@@H](NC(=O)CNC(=O)[C@H](CCC(=O)O)NC(=O)[C@H](C)NC(=O)[C@@H](N)Cc1c[nH]cn1)[C@@H](C)O)[C@@H](C)O)C(C)C)C(=O)N[C@@H](CCC(=O)O)C(=O)N[C@@H](Cc1ccccc1)C(=O)N[C@H](C(=O)N[C@@H](C)C(=O)N[C@@H](Cc1c[nH]c2ccccc12)C(=O)N[C@@H](CC(C)C)C(=O)N[C@H](C(=O)N[C@@H](CCCNC(=N)N)C(=O)NCC(=O)N[C@@H](CCCNC(=N)N)C(N)=O)C(C)C)[C@@H](C)CC)[C@@H](C)O [SH(2-11)-GLP-1(7-36)]
Rat GLP-1 receptor
  EC50: 0.13 nM
C57BL/6J mice [1]; 1 hour after injection
  food intake compared to vehicle: decreases the food intake significantly
C57BL/6J mice [1]; 2 hours after injection
  food intake compared to vehicle: decreases the food intake significantly
[2]; male, Sprague Dawley, cerebrospinal fluid (CSF), iv, CSF 10 minutes after injection into vena cava, SH(2-11)-GLP-1 500, GLP-1 50 (injection), read-out: CSF conc
  level at time molar at 10 min: 277 µM
[2]; 10 min after i.v. injection
  detectable in CSF by RIA GLP-1 assay: detectable
[2]; [7]
  amount detectable within the CSF, of the total injected concentration: approximately 55%
  concentrated more in the CSF compared to GLP-1(7-36): 10 times
[2]; CSF 10 minutes after injection
  Ratio (CSF conc to injection conc): 0.554
[2]; compared to GLP-1(7-36)
  higher presence within the CSF: 10 fold
C57BL/6J mice [3]; 15 nmol/kg s.c., after 1 hour
  food intake compared to vehicle: decreased food intake significantly
C57BL/6J mice [3]; 15 nmol/kg s.c., after 2 hours
  food intake compared to vehicle: decreased food intake significantly
C57BL/6J mice [3]; 15 nmol/kg s.c., after 4 hours
  food intake compared to vehicle: decreased food intake significantly
C57BL/6J mice [3]; 30 nmol/kg s.c., after 1 hour
  food intake compared to vehicle: decreased their food intake significantly
C57BL/6J mice [3]; 30 nmol/kg s.c., after 2 hours
  food intake compared to vehicle: decreased their food intake significantly
C57BL/6J mice [3]; 30 nmol/kg s.c., after 4 hours
  food intake compared to vehicle: still present
C57BL/6J mice [3]; 30 nmol/kg s.c., after 14 hours
  food intake compared to vehicle: significant lower food intake
[4]; after 1 hour, conjugate also vs GLP-1(7-36)
  food intake compared to vehicle: decreased food intake significantly
[4]; after 2 hours, conjugate also vs GLP-1(7-36)
  food intake compared to vehicle: decreased food intake significantly
[4]; after 4 hours, conjugate also vs GLP-1(7-36)
  food intake compared to vehicle: decreased food intake significantly
[4]; after 14 hours
  food intake compared to vehicle: significantly decreased
CaCo-2 cells
  integrity of tight monolayer of CaCO-2 cells (uptake of fluorescent dye FITCs): decreased integrity
Human GLP-1 receptor
  EC50: 0.13 nM

## TAMRA labelled SH-protein: SH protein (SEQ ID NO: 74) with N-terminal carboxytetramethyl rhodamine on the alpha amino-group of the first Methionine ({TAMRA}-MPAIQPPLYLTFLLLILLYLIITLYVWIILTVTYKTAVRHAALYQRSFFHWSFDHSL)
[5]
  concentration at which binding to the choroid plexus is still seen: 2,25 UM
[6]
  concentrations at which binding to the choroid plexus is seen (only at higher concentrations): 22 µM and 11 µM
